According to PubChem BioAssay AID248 (DTP/NCI, 2004):
Where “and” joins values, the source holds several entries; their conditions need not be identical. Equal values may be shown once. Inconclusive results and toxic doses are left out. Rule as the data show it: active = T/C of 150% or more; inactive = T/C below 125%.

System: L1210 leukemia ip in BDF1 mice, survival T/C
Assay: NCI In Vivo Anticancer Drug Screen. Data for tumor model L1210 Leukemia (intraperitoneal) in B6D2F1 (BDF1) mice
Settings: endpoint: mean survival time, higher = longer survival
Outline: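 Mice bearing the transplanted tumor received compound or vehicle. Survival of the treated group was divided by that of the vehicle-treated control group to give the ratio.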

[1] = dose: 100.0 mg/kg/injection, schedule: Q04DX003 (ip), vehicle: Klucel (hydroxypropylcellulose) (HPC)
[2] = dose: 200.0 mg/kg/injection, schedule: Q04DX003 (ip), vehicle: Klucel (hydroxypropylcellulose) (HPC)
[3] = dose: 400.0 mg/kg/injection, schedule: Q04DX003 (ip), vehicle: Klucel (hydroxypropylcellulose) (HPC)
[4] = dose: 100.0 mg/kg/injection, schedule: Q04DX003 (ip), vehicle: saline with Tween-80
[5] = dose: 100.0 mg/kg/injection, schedule: Q01DX009 (ip), vehicle: Klucel (hydroxypropylcellulose) (HPC)
[6] = dose: 200.0 mg/kg/injection, schedule: Q01DX009 (ip), vehicle: Klucel (hydroxypropylcellulose) (HPC)
[7] = dose: 400.0 mg/kg/injection, schedule: Q01DX009 (ip), vehicle: Klucel (hydroxypropylcellulose) (HPC)
[8] = dose: 100.0 mg/kg/injection, schedule: Q04DX002 (ip), vehicle: saline with Tween-80
[9] = dose: 50.0 mg/kg/injection, schedule: Q01DX009 (ip), vehicle: saline with Tween-80
[10] = dose: 100.0 mg/kg/injection, schedule: Q01DX009 (ip), vehicle: saline with Tween-80

Measured: T/C

Cc1cc(-c2ccccc2)c(-c2ccccn2)c2ccccc12
inactive: [1] 96 % of control | [2] 91 % of control | [3] 86 % of control

O=C(O)c1c(F)cccc1F
inactive: dose: 25.0 mg/kg/injection, schedule: Q04DX003 (ip), vehicle: saline with Tween-80 91 % of control | dose: 50.0 mg/kg/injection, schedule: Q04DX003 (ip), vehicle: saline with Tween-80 91 % of control | [1] 95 % of control | [4] 88 % of control | [3] 88 % of control

O=C(NC(CSCc1ccccc1)C(=O)Oc1ccc([N+](=O)[O-])cc1)OCc1ccccc1 (centres undefined)
inactive: dose: 12.0 mg/kg/injection, schedule: Q01DX009 (ip), vehicle: gum acacia 91 % of control | dose: 25.0 mg/kg/injection, schedule: Q01DX009 (ip), vehicle: gum acacia 111 % of control | dose: 25.0 mg/kg/injection, schedule: Q04DX003 (ip), vehicle: gum acacia 91 % of control | dose: 50.0 mg/kg/injection, schedule: Q01DX009 (ip), vehicle: gum acacia 87 % of control | dose: 50.0 mg/kg/injection, schedule: Q04DX003 (ip), vehicle: gum acacia 88 % of control | dose: 100.0 mg/kg/injection, schedule: Q04DX003 (ip), vehicle: gum acacia 92 % of control

CCCCNC(=O)Nc1cccc(C)c1C
inactive: [5] 101 % of control | [1] 95 % of control | [6] 94 % of control | [2] 93 % of control | [7] 93 % of control | [3] 97 % of control

COC(=O)c1cc([N+](=O)[O-])cc([N+](=O)[O-])c1O
inactive: dose: 50.0 mg/kg/injection, schedule: Q01DX009 (ip), vehicle: Klucel (hydroxypropylcellulose) (HPC) 87 % of control | [8] 100 % of control | dose: 200.0 mg/kg/injection, schedule: Q04DX002 (ip), vehicle: saline with Tween-80 105 % of control

CN(C)c1ccc(/C=C/c2ccc([N+](=O)[O-])cc2[N+](=O)[O-])c(Cl)c1
inactive: [9] 88 % of control | [10] 100 % of control | dose: 200.0 mg/kg/injection, schedule: Q01DX009 (ip), vehicle: saline with Tween-80 91 % of control

Cc1cc(NC(=O)Nc2cc(F)ccc2F)no1
inactive: dose: 100.0 mg/kg/injection, schedule: Q01DX001 (ip), vehicle: Klucel (hydroxypropylcellulose) (HPC) 117 % of control | [5] 97 % of control | dose: 100.0 mg/kg/injection, schedule: Q04DX002 (ip), vehicle: Klucel (hydroxypropylcellulose) (HPC) 94 % of control and 90 % of control | [1] 99 % of control | dose: 200.0 mg/kg/injection, schedule: Q01DX001 (ip), vehicle: Klucel (hydroxypropylcellulose) (HPC) 106 % of control | [6] 92 % of control and 100 % of control | dose: 200.0 mg/kg/injection, schedule: Q04DX002 (ip), vehicle: Klucel (hydroxypropylcellulose) (HPC) 94 % of control and 97 % of control | [2] 103 % of control | dose: 400.0 mg/kg/injection, schedule: Q01DX001 (ip), vehicle: Klucel (hydroxypropylcellulose) (HPC) 101 % of control | [7] 97 % of control and 90 % of control | dose: 400.0 mg/kg/injection, schedule: Q04DX002 (ip), vehicle: Klucel (hydroxypropylcellulose) (HPC) 94 % of control and 101 % of control | [3] 103 % of control

COC(=O)C1C(c2ccc(-c3ccccc3)cc2)N1C(C)C (centres undefined)
inactive: [1] 101 % of control | [2] 95 % of control | [3] 98 % of control

Oc1ccc(C2C=CCC2)cc1C1C=CCC1 (centres undefined)
inactive: [5] 105 % of control | [1] 100 % of control | [6] 100 % of control | [2] 96 % of control | [7] 94 % of control | [3] 109 % of control

NC(CCC(=O)Nc1cccc2ccccc12)C(=O)O (centres undefined)
inactive: [4] 105 % of control | dose: 200.0 mg/kg/injection, schedule: Q04DX003 (ip), vehicle: saline with Tween-80 100 % of control | dose: 400.0 mg/kg/injection, schedule: Q04DX003 (ip), vehicle: saline with Tween-80 106 % of control

C=CCCCCCCCCC(=O)N(CCOC)CCOC
inactive: dose: 25.0 mg/kg/injection, schedule: Q01DX009 (ip), vehicle: saline with Tween-80 96 % of control | [9] 100 % of control | [10] 100 % of control and 91 % of control

C[n+]1c2cc(N)ccc2cc2ccc(N)cc21
inactive: dose: 3.0 mg/kg/injection, schedule: Q04DX003 (ip), vehicle: saline 108 % of control | dose: 3.5 mg/kg/injection, schedule: Q01DX009 (ip), vehicle: saline 111 % of control | dose: 5.3 mg/kg/injection, schedule: Q01DX009 (ip), vehicle: saline 118 % of control | dose: 6.0 mg/kg/injection, schedule: Q04DX003 (ip), vehicle: saline 105 % of control | dose: 6.25 mg/kg/injection, schedule: Q01DX009 (ip), vehicle: saline 122 % of control | dose: 12.0 mg/kg/injection, schedule: Q04DX003 (ip), vehicle: saline 113 % of control | dose: 12.5 mg/kg/injection, schedule: Q04DX003 (ip), vehicle: saline 98 % of control

O=C1NC(=O)C(c2cccs2)(c2cccs2)N1
inactive: dose: 25.0 mg/kg/injection, schedule: Q01DX009 (ip), vehicle: water 98 % of control | dose: 50.0 mg/kg/injection, schedule: Q01DX009 (ip), vehicle: water 102 % of control | dose: 100.0 mg/kg/injection, schedule: Q01DX009 (ip), vehicle: water 98 % of control | dose: 100.0 mg/kg/injection, schedule: Q04DX003 (ip), vehicle: water 106 % of control | dose: 200.0 mg/kg/injection, schedule: Q01DX009 (ip), vehicle: water 91 % of control | dose: 200.0 mg/kg/injection, schedule: Q04DX003 (ip), vehicle: water 112 % of control | dose: 300.0 mg/kg/injection, schedule: Q01DX009 (ip), vehicle: water 90 % of control

NC(=O)N/N=C(\CF)C(=O)O
inactive: dose: 6.0 mg/kg/injection, schedule: Q01DX009 (ip), vehicle: Klucel (hydroxypropylcellulose) (HPC) 98 % of control | dose: 12.0 mg/kg/injection, schedule: Q01DX009 (ip), vehicle: Klucel (hydroxypropylcellulose) (HPC) 110 % of control | dose: 24.0 mg/kg/injection, schedule: Q01DX009 (ip), vehicle: Klucel (hydroxypropylcellulose) (HPC) 101 % of control | dose: 48.0 mg/kg/injection, schedule: Q01DX009 (ip), vehicle: Klucel (hydroxypropylcellulose) (HPC) 102 % of control

O=C(CCl)OCCCl
inactive: dose: 25.0 mg/kg/injection, schedule: Q04DX002 (ip), vehicle: saline with Tween-80 95 % of control | dose: 50.0 mg/kg/injection, schedule: Q04DX002 (ip), vehicle: saline with Tween-80 103 % of control | [8] 93 % of control and 95 % of control
